# Assay results as given in ChEMBL document CHEMBL1201862, “PubChem BioAssay data set” (2004).
#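 Exposure lasted 48 hours, with cells grown in 96-well plates and compounds tested at five concentrations. Abbreviation: GI50, concentration required for 50% inhibition of growth.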 Calls of active or inactive are those of the source. No stated cut-off is given here; in the data, active = GI50 up to about 1.1 µM and inactive = higher.
# Assays:
# Test in all cases: NCI-60 cell line screen, 48 h
# [1] = test system: T47D
# [2] = test system: UACC-62
# [3] = test system: UO-31
# [4] = test system: HL-60
# [5] = test system: BT-549
# [6] = test system: SK-MEL-2
# [7] = test system: MOLT-4
# [8] = test system: SR
# [9] = test system: SK-MEL-5
# [10] = test system: SK-MEL-28
# [11] = test system: OVCAR-3
# [12] = test system: KM12
# [13] = test system: PC-3
# [14] = test system: U-251
# [15] = test system: NCI/ADR-RES
# [16] = test system: A549
# [17] = test system: NCI-H23
# [18] = test system: K562
# [19] = test system: SF-295
# [20] = test system: MCF7
# [21] = test system: CAKI-1
# [22] = test system: OVCAR-4
# [23] = test system: COLO 205
# [24] = test system: SNB-19
# [25] = test system: EKVX
# [26] = test system: SK-OV-3
# [27] = test system: NCI-H460
# [28] = test system: Malme-3M
# [29] = test system: SF-539
# [30] = test system: NCI-H522
# [31] = test system: MDA-MB-231
# [32] = test system: HCT-116
# [33] = test system: HT-29
# [34] = test system: RPMI-8226
# [35] = test system: CCRF-CEM
# [36] = test system: HOP-62
# [37] = test system: HCT-15
# [38] = test system: Hs-578T
# [39] = test system: RXF 393
# [40] = test system: DU-145
# [41] = test system: HOP-92
# [42] = test system: MDA-N
# [43] = test system: IGROV-1
# [44] = test system: OVCAR-5
# [45] = test system: SN12C
# [46] = test system: SNB-75
# [47] = test system: A498
# [48] = test system: OVCAR-8
# [49] = test system: M14
# [50] = test system: UACC-257
# [51] = test system: SW-620
# [52] = test system: LOX IMVI
# [53] = test system: HCC 2998
# [54] = test system: NCI-H226
# [55] = test system: SF-268
# [56] = test system: MDA-MB-435
# [57] = test system: 786-0
# [58] = test system: TK-10
# [59] = test system: ACHN
compound,measurement,setting,value
COc1cc(C2SCC(=O)N2c2ccc(Cl)c(Cl)c2)cc(OC)c1OC (stereo unspecified),GI50,[1],10.6 µM (inactive)
same,GI50,[2],0.838 µM (active)
same,GI50,[3],18.9 µM (inactive)
same,GI50,[4],19.5 µM (inactive)
same,GI50,[5],44.7 µM (inactive)
same,GI50,[6],30.2 µM (inactive)
same,GI50,[7],14.7 µM (inactive)
same,GI50,[8],9.75 µM (inactive)
same,GI50,[9],21.7 µM (inactive)
same,GI50,[10],> 50.9 µM (inactive)
same,GI50,[11],34.1 µM (inactive)
same,GI50,[12],12.7 µM (inactive)
same,GI50,[13],54.2 µM (inactive)
same,GI50,[14],47.3 µM (inactive)
same,GI50,[15],37.2 µM (inactive)
same,GI50,[16],> 78.7 µM (inactive)
same,GI50,[17],69.5 µM (inactive)
same,GI50,[18],1.28 µM (inactive)
same,GI50,[19],29.8 µM (inactive)
same,GI50,[20],38.2 µM (inactive)
same,GI50,[21],27.5 µM (inactive)
same,GI50,[22],27.4 µM (inactive)
same,GI50,[23],34.3 µM (inactive)
same,GI50,[24],> 100 µM (inactive)
same,GI50,[25],25.5 µM (inactive)
same,GI50,[26],99.3 µM (inactive)
same,GI50,[27],30.2 µM (inactive)
same,GI50,[28],> 100 µM (inactive)
same,GI50,[29],70.5 µM (inactive)
same,GI50,[30],22.1 µM (inactive)
same,GI50,[31],> 64.4 µM (inactive)
same,GI50,[32],25.5 µM (inactive)
same,GI50,[33],23.1 µM (inactive)
same,GI50,[34],31.8 µM (inactive)
same,GI50,[35],14.8 µM (inactive)
same,GI50,[36],24.2 µM (inactive)
same,GI50,[37],20.6 µM
same,GI50,[38],> 100 µM (inactive)
same,GI50,[39],18.5 µM (inactive)
same,GI50,[40],> 38.5 µM (inactive)
same,GI50,[41],80.9 µM (inactive)
same,GI50,[42],13 µM (inactive)
same,GI50,[43],> 82.6 µM (inactive)
same,GI50,[44],7.5 µM (inactive)
same,GI50,[45],> 54.5 µM (inactive)
same,GI50,[46],76.6 µM (inactive)
same,GI50,[47],> 100 µM (inactive)
same,GI50,[48],60.5 µM (inactive)
same,GI50,[49],11.2 µM (inactive)
same,GI50,[50],32.6 µM (inactive)
same,GI50,[51],48 µM (inactive)
same,GI50,[52],17.7 µM (inactive)
same,GI50,[53],> 56.9 µM (inactive)
same,GI50,[54],> 37 µM (inactive)
same,GI50,[55],> 100 µM (inactive)
same,GI50,[56],11.1 µM (inactive)
same,GI50,[57],> 55.6 µM (inactive)
same,GI50,[58],> 100 µM (inactive)
Cc1ccc([N+](=O)[O-])cc1S(=O)(=O)Nc1ccc(C(=O)/C=C/c2cccs2)cc1,GI50,[1],25.6 µM (inactive)
same,GI50,[2],16.3 µM (inactive)
same,GI50,[3],20 µM (inactive)
same,GI50,[4],28.3 µM (inactive)
same,GI50,[5],18.7 µM (inactive)
same,GI50,[6],20.6 µM (inactive)
same,GI50,[7],22.2 µM (inactive)
same,GI50,[8],18.9 µM (inactive)
same,GI50,[9],16.9 µM (inactive)
same,GI50,[10],23.1 µM (inactive)
same,GI50,[11],20.8 µM (inactive)
same,GI50,[12],16.6 µM (inactive)
same,GI50,[13],21.1 µM (inactive)
same,GI50,[15],24.9 µM (inactive)
same,GI50,[16],91.6 µM (inactive)
same,GI50,[17],20.2 µM (inactive)
same,GI50,[18],29 µM (inactive)
same,GI50,[19],32.7 µM (inactive)
same,GI50,[20],15.7 µM (inactive)
same,GI50,[21],16.2 µM (inactive)
same,GI50,[22],22.5 µM (inactive)
same,GI50,[23],24.1 µM (inactive)
same,GI50,[24],21.5 µM (inactive)
same,GI50,[59],29.4 µM (inactive)
same,GI50,[25],20.1 µM (inactive)
same,GI50,[26],44.1 µM (inactive)
same,GI50,[27],51.5 µM (inactive)
same,GI50,[28],27.4 µM (inactive)
same,GI50,[29],27.2 µM (inactive)
same,GI50,[30],19.2 µM (inactive)
same,GI50,[31],16.3 µM (inactive)
same,GI50,[32],18.2 µM (inactive)
same,GI50,[33],18.9 µM (inactive)
same,GI50,[34],20.7 µM (inactive)
same,GI50,[35],0.271 µM (active)
same,GI50,[36],22.1 µM (inactive)
same,GI50,[37],23.4 µM
same,GI50,[38],36.3 µM (inactive)
same,GI50,[39],17.7 µM (inactive)
same,GI50,[40],23.3 µM (inactive)
same,GI50,[41],27.9 µM (inactive)
same,GI50,[42],25.2 µM (inactive)
same,GI50,[43],36.6 µM (inactive)
same,GI50,[44],31.5 µM (inactive)
same,GI50,[45],24.2 µM (inactive)
same,GI50,[46],19.3 µM (inactive)
same,GI50,[47],15.3 µM (inactive)
same,GI50,[48],37.4 µM (inactive)
same,GI50,[49],20.1 µM (inactive)
same,GI50,[50],20.5 µM (inactive)
same,GI50,[51],22.4 µM (inactive)
same,GI50,[52],20.7 µM (inactive)
same,GI50,[53],18.5 µM (inactive)
same,GI50,[54],22.5 µM (inactive)
same,GI50,[55],32 µM (inactive)
same,GI50,[56],17.6 µM (inactive)
same,GI50,[57],18.4 µM (inactive)
same,GI50,[58],56.2 µM (inactive)
